Results as given in patent US6750228B1, “Aromatic sulfone hydroxamic acid metalloprotease inhibitor” (priority 1997, dated 2004).
pIC50: −log10 of the molar value. Where two headings read alike, the source gives them in different places.

Experiments:
[1] = target: T1, MMP-13 (Homo sapiens, UniProt P45452); experiment: biochemical; details: read-out: MMP-13 IC50
T1 construct: made in house; host or cells: baculovirus / insect cells
Protocol: (§1) The compounds prepared in the manner described in the Examples above were assayed for activity by an in vitro assay. […] Briefly, 4-aminophenylmercuric acetate (APMA) or trypsin-activated MMPs were incubated with various concentrations of the inhibitor compound at room temperature for 5 minutes.
(§2) The expressed enzyme was purified first over a heparin agarose column and then over a chelating zinc chloride column. The proenzyme was activated by APMA for use in the assay.
(§3) MMP-1 expressed in transfected HT-1080 cells was provided by Dr. Harold Welgus of Washington University, St. Louis, Mo. The enzyme was also activated using APMA and was then purified over a hydroxamic acid column. Dr. Welgus also provided transfected HT-1080 cells that expressed MMP-9. Transfected cells that expressed MMP-2 were provided by Dr. Gregory Goldberg, also of Washington University. Studies with MMP-7 were carried out at pH 7.5 in the presence of 0.02% 2-mercaptoethanol using conditions otherwise similar to those used for the other enzymes. The enzyme was obtaind from a hMMP-7-expressing E. coli clone that was a gift of Dr. Steven Shapiro of Washington University, St. Louis, Mo. Further specifics for preparation and use of these enzymes can be found in the scientific literature describing these enzymes. See, for example, Enzyme Nomenclature, Academic Press, San Diego, Calif. […] The enzyme substrate is a methoxycoumarin-containing polypeptide having the following sequence:
(§4) MCA-ProLeuGlyLeuDpaAlaArgNH2, wherein MCA is methoxycoumarin and Dpa is 3-(2,4-dinitrophenyl)-L-2,3-diaminopropionyl alanine.
(§5) The buffer used for assays contained 100 mM Tris-HCl, 100 mM NaCl, 10 mM CaCl2 and 0.05 percent polyethyleneglycol (23) lauryl ether at a pH value of 7.5. Assays were carried out at room temperature, and dimethyl sulfoxide (DMSO) at a final concentration of 1 percent was used to dissolve inhibitor compound.
(§6) The assayed inhibitor compound in DMSO/buffer solution was compared to an equal amount of DMSO/buffer with no inhibitor as control using Microfluor White Plates (Dynatech). The inhibitor or control solution was maintained in the plate for 10 minutes and the substrate was added to provide a final concentration of 4 μM.
(§7) Inhibition was measured as a reduction in fluorescent intensity as a function of inhibitor concentration, using a Perkin Elmer L550 plate reader. The IC50 values were calculated from those values. The results are set forth in the Inhibition Table A, below, reported in terms of IC50 to three significant figures, where appropriate.

[2] = target: T2, MMP-2 (Homo sapiens, UniProt P08253); experiment: biochemical; details: for pIC50: read-out: MMP-2 IC50; for IC50: MMP-2 IC50 (nM)
T2 construct: made in house; provided by Dr. Gregory Goldberg, Washington University
T2 sequence (P08253 110-660): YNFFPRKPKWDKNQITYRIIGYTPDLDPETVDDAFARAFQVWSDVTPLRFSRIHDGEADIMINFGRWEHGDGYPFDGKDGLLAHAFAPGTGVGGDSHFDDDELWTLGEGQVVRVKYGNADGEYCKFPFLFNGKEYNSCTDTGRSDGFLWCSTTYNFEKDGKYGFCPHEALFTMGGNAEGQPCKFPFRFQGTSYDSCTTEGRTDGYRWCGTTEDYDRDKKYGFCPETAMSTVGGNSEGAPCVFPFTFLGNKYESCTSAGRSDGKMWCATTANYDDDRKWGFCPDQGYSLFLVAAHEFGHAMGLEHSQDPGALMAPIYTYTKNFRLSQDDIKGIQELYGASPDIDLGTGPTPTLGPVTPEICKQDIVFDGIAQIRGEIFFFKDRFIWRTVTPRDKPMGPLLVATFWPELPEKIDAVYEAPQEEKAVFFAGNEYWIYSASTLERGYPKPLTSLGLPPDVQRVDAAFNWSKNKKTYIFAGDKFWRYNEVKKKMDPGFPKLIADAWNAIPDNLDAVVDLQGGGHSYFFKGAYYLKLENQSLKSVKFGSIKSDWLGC
Protocol: as §1, §2, §3, §4, §5, §6, §7

[3] = recombinant human MMP-13, MCA peptide substrate 4 μM, pH 7.5, room temperature
[4] = recombinant human MMP-2, MCA peptide substrate 4 μM, pH 7.5, room temperature

C#CCN1CCC(C(N)=O)(S(=O)(=O)c2ccc(Sc3ccccc3)cc2)CC1 [Example 2]
pIC50 [1, 3]: 5.26 | pIC50 [2, 4]: 5.22

CSc1ccc(C(=O)C2CCN(c3ccc(S(=O)(=O)C4(C(=O)NO)CCOCC4)cc3)CC2)cc1 [Example 856]
pIC50 [1, 3]: 8.92 | pIC50 [2, 4]: 6.60

O=C(NO)C1(S(=O)(=O)c2ccc(N3CCN(c4ccccc4)CC3)cc2)CCN(C2CC2)CC1 [Example 369]
pIC50 [1, 3]: 8.48 | pIC50 [2, 4]: 8.27

CN(C)c1ccc(S(=O)(=O)C2CCN(c3ccc(S(=O)(=O)C4(C(=O)NO)CCOCC4)cc3)CC2)cc1 [Example 836]
pIC50 [1, 3]: 6.87 | pIC50 [2, 4]: 5.38

Cc1ccc(S(=O)(=O)N(C)C2CCN(c3ccc(S(=O)(=O)C4(C(=O)NO)CCOCC4)cc3)CC2)cc1 [Example 834]
pIC50 [1, 3]: 6.82 | pIC50 [2, 4]: 6.11

CNC(=S)N1CCC(C(=O)NO)(S(=O)(=O)c2ccc(Oc3ccc(OC(F)(F)F)cc3)cc2)CC1 [Example 198, N-hydroxy-4[[4-(4-trifluoromethoxyphenoxy)-]sulfonyl]-1-(N-methylthiourea)-4-piperidinecarboxamide]
pIC50 [1, 3]: 9.43 | pIC50 [2, 4]: 9.60

O=C(NO)C1(S(=O)(=O)c2ccc(C3=CCC(c4ccccc4)CC3)cc2)CCOCC1 (stereo not drawn) [Example 828]
pIC50 [1, 3]: 8.82 | pIC50 [2, 4]: 7.89

C=C(C)c1ccc(N2CCN(c3ccc(S(=O)(=O)C4(C(=O)NO)CCN(C5CC5)CC4)cc3)CC2)cc1 [Example 360]
pIC50 [1, 3]: 8.00 | pIC50 [2, 4]: 8.25

CC1CC(C)CN(C(=O)C2CCN(c3ccc(S(=O)(=O)C4(C(=O)NO)CCOCC4)cc3)CC2)C1 (stereo not drawn) [Example 55]
pIC50 [1, 3]: 8.00 | pIC50 [2, 4]: < 5.00

O=C(NO)C1(S(=O)(=O)c2ccc(N3CCC(OCc4cccc(C(F)(F)F)c4)CC3)cc2)CCOCC1 [Example 177]
pIC50 [1, 3]: 8.06 | pIC50 [2, 4]: 6.28

CN(C)S(=O)(=O)N1CC(Oc2ccc(S(=O)(=O)C3(C(=O)NO)CCOCC3)cc2)C1 [Example 853]
pIC50 [1, 3]: 7.80 | pIC50 [2, 4]: 6.92

Cc1ccc(C(=O)C2CCN(c3ccc(S(=O)(=O)C4(C(=O)NO)CCN(C5CC5)CC4)cc3)CC2)cc1 [Example 373]
pIC50 [1, 3]: 8.52 | pIC50 [2, 4]: 7.10

COc1ccc(N2CCN(c3ccc(S(=O)(=O)C4(C(=O)NO)CCN(C5CC5)CC4)cc3)CC2)cc1 [Example 368]
pIC50 [2, 4]: 8.15

CCOc1ccc(C(=O)C2CCN(c3ccc(S(=O)(=O)C4(C(=O)NO)CCN(C5CC5)CC4)cc3)CC2)cc1 [Example 376]
pIC50 [1, 3]: 8.26 | pIC50 [2, 4]: 6.64

CC(C)(C)c1ccc(CC2CCN(c3ccc(S(=O)(=O)C4(C(=O)NO)CCOCC4)cc3)CC2)cc1 [Example 841]
pIC50 [1, 3]: 6.55 | pIC50 [2, 4]: 5.72

COc1ccc(CC(=O)C2CCN(c3ccc(S(=O)(=O)C4(C(=O)NO)CCOCC4)cc3)CC2)cc1 [Example 862]
pIC50 [1, 3]: 8.77 | pIC50 [2, 4]: 7.40

O=C(NO)C1(S(=O)(=O)c2ccc(N3CCN(CCO)CC3)cc2)CCOCC1 [Example 623]
pIC50 [1, 3]: 6.46 | pIC50 [2, 4]: 5.85

O=C(c1ccc(Cl)cc1)C1CCN(c2ccc(S(=O)(=O)C3(C(=O)NO)CCOCC3)cc2)CC1 [Example 857]
pIC50 [1, 3]: 8.89 | pIC50 [2, 4]: 6.92

COc1ccccc1N1CCN(c2ccc(S(=O)(=O)C3(C(=O)NO)CCOCC3)cc2)CC1 [Example 85]
pIC50 [1, 3]: 6.89 | pIC50 [2, 4]: 6.43

O=C(Cc1ccc(Cl)cc1)C1CCN(c2ccc(S(=O)(=O)C3(C(=O)NO)CCOCC3)cc2)CC1 [Example 861]
pIC50 [1, 3]: 8.70 | pIC50 [2, 4]: 7.46

O=C(NO)C1(S(=O)(=O)c2ccc(N3CCC(Sc4nc5ccccc5o4)CC3)cc2)CCN(C2CC2)CC1 [Example 382]
pIC50 [1, 3]: 7.94 | pIC50 [2, 4]: 6.59

Cc1ccc(C(O)C2CCN(c3ccc(S(=O)(=O)C4(C(=O)NO)CCOCC4)cc3)CC2)cc1C (stereo not drawn) [Example 826]
pIC50 [1, 3]: 7.40 | pIC50 [2, 4]: 6.19

COc1cc(C(=O)C2CCN(c3ccc(S(=O)(=O)C4(C(=O)NO)CCOCC4)cc3)CC2)ccc1Cl [Example 859]
pIC50 [1, 3]: 8.26 | pIC50 [2, 4]: 6.36

CC(=O)c1ccccc1S(=O)(=O)N1CC(Oc2ccc(S(=O)(=O)C3(C(=O)NO)CCOCC3)cc2)C1 [Example 854]
pIC50 [1, 3]: 7.40 | pIC50 [2, 4]: 5.48

O=C(NO)C1(S(=O)(=O)c2ccc(Oc3ccc(C(F)(F)F)cc3)cc2)CCN(C2CC2)CC1 [Example 270]
IC50 [2]: 1 nM

CS(=O)(=O)c1ccccc1S(=O)(=O)N1CC(Oc2ccc(S(=O)(=O)C3(C(=O)NO)CCOCC3)cc2)C1 [Example 845]
pIC50 [1, 3]: 7.54 | pIC50 [2, 4]: 5.70

O=C(NO)C1(S(=O)(=O)c2ccc(N3CCC(SCc4ccc(C(F)(F)F)cc4)CC3)cc2)CCN(C2CC2)CC1 [Example 394]
pIC50 [1, 3]: 9.30 | pIC50 [2, 4]: 8.10

CCCCS(=O)(=O)N1CC(Oc2ccc(S(=O)(=O)C3(C(=O)NO)CCOCC3)cc2)C1 [Example 851]
pIC50 [1, 3]: 8.43 | pIC50 [2, 4]: 7.37

CCc1ccc(C(=O)C2CCN(c3ccc(S(=O)(=O)C4(C(=O)NO)CCN(C5CC5)CC4)cc3)CC2)cc1 [Example 371]
pIC50 [1, 3]: 7.95 | pIC50 [2, 4]: 6.40

C[C@H](OC1CCN(c2ccc(S(=O)(=O)C3(C(=O)NO)CCN(C4CC4)CC3)cc2)CC1)c1ccccc1 [Example 400]
pIC50 [1, 3]: 7.63 | pIC50 [2, 4]: 6.28

CN(C)c1cccc2c(S(=O)(=O)N3CC(Oc4ccc(S(=O)(=O)C5(C(=O)NO)CCOCC5)cc4)C3)cccc12 [Example 852]
pIC50 [1, 3]: 7.60 | pIC50 [2, 4]: 5.52

O=C(NO)C1(S(=O)(=O)c2ccc(N3CCC(c4nc(-c5cccc(C(F)(F)F)c5)no4)CC3)cc2)CCN(C2CC2)CC1 [Example 388]
pIC50 [1, 3]: 7.30 | pIC50 [2, 4]: 6.37

O=C(NO)C1(S(=O)(=O)c2ccc(Oc3ccc(C(F)(F)F)cc3)cc2)CCN(C2CC2)CC1 [Example 269]
IC50 [2]: < 0.1 nM

O=C(NO)C1(S(=O)(=O)c2ccc(Oc3ccc(C(F)(F)F)cc3)cc2)CCN(C2CC2)CC1 [Example 271]
IC50 [2]: 0.17 nM

C=CCN(CC=C)C(=O)C1CCN(c2ccc(S(=O)(=O)C3(C(=O)NO)CCOCC3)cc2)CC1 [Example 48]
pIC50 [1, 3]: 7.57 | pIC50 [2, 4]: 5.49

O=C(C1CCN(c2ccc(S(=O)(=O)C3(C(=O)NO)CCOCC3)cc2)CC1)N1CCN(c2ccc(C(F)(F)F)cc2)CC1 [Example 38]
pIC50 [1]: 7.17 | pIC50 [2]: 5.22

Cc1ccc(C2CCN(c3ccc(S(=O)(=O)C4(C(=O)NO)CCOCC4)cc3)CC2)cc1C [Example 869]
pIC50 [1, 3]: 8.70 | pIC50 [2, 4]: 7.11

COc1cccc(S(=O)(=O)N2CC(Oc3ccc(S(=O)(=O)C4(C(=O)NO)CCOCC4)cc3)C2)c1 [Example 829]
pIC50 [1, 3]: 8.22 | pIC50 [2, 4]: 7.66
